# From patent US20060030616A1, “Anhydride modified cantharidin analogues useful in the treatment of cancer” (priority 1998, published 2006)
# Tests used:
# L1210 cells [1] = assay: Cell cycle analysis, flow cytometry of propidium iodide stained cells; format: cell-based, murine
# Method: (§1) The cells are fixed in 70% ethanol and stored at −20° C. until analysis is performed (1-2 weeks). After fixing, the cells are pelleted and incubated in PBS containing propidium iodide ([…]) and RNase A (200 mg/ml) for at least 30 min at room temperature. The samples (2×10^4 events) are analysed using a Becton Dickson FACScan, fluorescence is collected in fluorescence detector 2 (FL2), filter 575/30 nm band pass. Cell cycle distribution is assessed using Cell Quest software (Becton Dickson).
# (§2) The ability of the protein phosphatase inhibitors to abrogate the G1 or G2 checkpoint of the cell cycle may be determined by cell cycle analysis using flow cytometry. Briefly, asynchronous cell cultures are harvested 18 h after 6 Gy irradiation and/or 12 h incubation with the protein phosphatase inhibitor. Depending upon the p53 status of the cell line, radiation treatment alone will induce arrest in either G1 and/or G2 phase of the cell cycle.
# Data shown in Table 2 and FIG. 4 show the cell cycle response of L1210, HL60, HT29 and HCT116 cells to cantharidin and the new cantharidin analogues MK-2 and MK-4 after 12 h exposure. In summary, cantharidin and MK-2 produced a similar response and induced G2 arrest in all four cell lines tested. […] HL60 and HCT116 cells. […] The magnitude of the cell cycle arrest induced by these drugs directly correlated with their cytotoxicity in the respective cell lines. […] The cytotoxicity of the […]
# L1210 cells [2] = assay: Checkpoint abrogation after 6 Gy radiation, flow cytometry; format: cell-based, murine; settings: 12 h after drug
# Method: as §1, §2
# (§3) If the protein phosphatase inhibitor abrogates the G2 checkpoint then the cells will not arrest in the G2 phase of the cell cycle and the cells will continue through the cell cycle and accumulate in the G1 phase of the cell cycle only. Similarily if the protein phosphatase inhibitors abrogates the G1 checkpoint then the cells will not arrest in the G1 phase of the cell cycle and accumulate in the G2 phase of the cell cycle only. Cell cycle analysis using propidium iodide labelling of DNA has been used extensively in our laboratory to assess the effect of specific anticancer agents that induce S-phase cell cycle arrest and apoptotic cell death (Sakoff, Ackland and Stewart, 1998). Experiments were performed on a Becton Dickinson FACScan and using Cell Quest software.
# (§4) The cells were treated with 6 Gy of radiation and then treated with cantharidin 6 h later. The ability to abrogate cell cycle arrest was assessed is 12 h after the addition of the drugs.
# HCT116 cells = assay: as above; format: cell-based, human; settings: 12 h after drug
# Method: as §1, §2, §3, §4
# HL60 cells = assay: as above; format: cell-based, human; settings: 12 h after drug
# Method: as §1, §2, §3, §4
# HT29 cells = assay: as above; format: cell-based, human; settings: 12 h after drug
# Method: as §1, §2, §3, §4
structure (smiles),measurement,setting,value
"C[C@@]12C(=O)OC(=O)[C@]1(C)[C@H]1CC[C@@H]2O1 [Cantharidin, exo.exo-2.3-dimethyl-7-oxobicyclo[2.2.1]heptane-2,3-dicarboxylic acid anhydride]","Cell Cycle Distribution, G1","L1210 cells [1]; L1210, 1 μM, 12 h",45.8 percentage of total
same,"Cell Cycle Distribution, G2 + M","L1210 cells [1]; L1210, 1 μM, 12 h",21.6 percentage of total
same,"Cell Cycle Distribution, S","L1210 cells [1]; L1210, 1 μM, 12 h",33.7 percentage of total
same,"Cell Cycle Distribution, sub G1","L1210 cells [1]; L1210, 1 μM, 12 h",0.5 percentage of total
same,"Cell Cycle Distribution, G1","L1210 cells [1]; L1210, 5 μM, 12 h",46.5 percentage of total
same,"Cell Cycle Distribution, G2 + M","L1210 cells [1]; L1210, 5 μM, 12 h",21.9 percentage of total
same,"Cell Cycle Distribution, S","L1210 cells [1]; L1210, 5 μM, 12 h",32.6 percentage of total
same,"Cell Cycle Distribution, sub G1","L1210 cells [1]; L1210, 5 μM, 12 h",0.6 percentage of total
same,"Cell Cycle Distribution, G1","L1210 cells [1]; L1210, 10 μM, 12 h",49.1 percentage of total
same,"Cell Cycle Distribution, G2 + M","L1210 cells [1]; L1210, 10 μM, 12 h",18.9 percentage of total
same,"Cell Cycle Distribution, S","L1210 cells [1]; L1210, 10 μM, 12 h",33.0 percentage of total
same,"Cell Cycle Distribution, sub G1","L1210 cells [1]; L1210, 10 μM, 12 h",0.5 percentage of total
same,"Cell Cycle Distribution, G1","L1210 cells [1]; L1210, 50 μM, 12 h",22.0 percentage of total
same,"Cell Cycle Distribution, G2 + M","L1210 cells [1]; L1210, 50 μM, 12 h",50.6 percentage of total
same,"Cell Cycle Distribution, S","L1210 cells [1]; L1210, 50 μM, 12 h",27.8 percentage of total
same,"Cell Cycle Distribution, sub G1","L1210 cells [1]; L1210, 50 μM, 12 h",1.9 percentage of total
same,Cell cycle remark,"L1210 cells [1]; L1210, 50 μM, 12 h",G2 arrest
same,Cell cycle response,"L1210 cells [1]; L1210, 12 h exposure",G2 arrest
same,"Cell Cycle Distribution, G1","L1210 cells [2]; L1210, 1 μM, 18 h after 6Gy",27.2 percentage of total
same,"Cell Cycle Distribution, G2 + M","L1210 cells [2]; L1210, 1 μM, 18 h after 6Gy",37.5 percentage of total
same,"Cell Cycle Distribution, S","L1210 cells [2]; L1210, 1 μM, 18 h after 6Gy",25.6 percentage of total
same,"Cell Cycle Distribution, sub G1","L1210 cells [2]; L1210, 1 μM, 18 h after 6Gy",1.6 percentage of total
same,"Cell Cycle Distribution, G1","L1210 cells [2]; L1210, 5 μM, 18 h after 6Gy",25.8 percentage of total
same,"Cell Cycle Distribution, G2 + M","L1210 cells [2]; L1210, 5 μM, 18 h after 6Gy",41.5 percentage of total
same,"Cell Cycle Distribution, S","L1210 cells [2]; L1210, 5 μM, 18 h after 6Gy",31.9 percentage of total
same,"Cell Cycle Distribution, sub G1","L1210 cells [2]; L1210, 5 μM, 18 h after 6Gy",2.4 percentage of total
same,"Cell Cycle Distribution, G1","L1210 cells [2]; L1210, 10 μM, 18 h after 6Gy",24.9 percentage of total
same,"Cell Cycle Distribution, G2 + M","L1210 cells [2]; L1210, 10 μM, 18 h after 6Gy",43.7 percentage of total
same,"Cell Cycle Distribution, S","L1210 cells [2]; L1210, 10 μM, 18 h after 6Gy",29.4 percentage of total
same,"Cell Cycle Distribution, sub G1","L1210 cells [2]; L1210, 10 μM, 18 h after 6Gy",3.4 percentage of total
same,"Cell Cycle Distribution, G1","L1210 cells [2]; L1210, 50 μM, 18 h after 6Gy",4.1 percentage of total
same,"Cell Cycle Distribution, G2 + M","L1210 cells [2]; L1210, 50 μM, 18 h after 6Gy",77.4 percentage of total
same,"Cell Cycle Distribution, S","L1210 cells [2]; L1210, 50 μM, 18 h after 6Gy",15.6 percentage of total
same,"Cell Cycle Distribution, sub G1","L1210 cells [2]; L1210, 50 μM, 18 h after 6Gy",4.9 percentage of total
same,Checkpoint remark,"L1210 cells [2]; L1210, 50 μM, 18 h after 6Gy",G1 abrogation
same,Checkpoint abrogation,"L1210 cells [2]; L1210, 6 Gy",abrogated radiation induced G1 arrest
same,"Cell Cycle Distribution, G1","HCT116 cells; HCT116, 1 μM, 18 h after 6Gy",26.1 percentage of total
same,"Cell Cycle Distribution, G2 + M","HCT116 cells; HCT116, 1 μM, 18 h after 6Gy",58.2 percentage of total
same,"Cell Cycle Distribution, S","HCT116 cells; HCT116, 1 μM, 18 h after 6Gy",13.8 percentage of total
same,"Cell Cycle Distribution, sub G","HCT116 cells; HCT116, 1 μM, 18 h after 6Gy",4.2 percentage of total
same,"Cell Cycle Distribution, G1","HCT116 cells; HCT116, 5 μM, 18 h after 6Gy",23.6 percentage of total
same,"Cell Cycle Distribution, G2 + M","HCT116 cells; HCT116, 5 μM, 18 h after 6Gy",63.3 percentage of total
same,"Cell Cycle Distribution, S","HCT116 cells; HCT116, 5 μM, 18 h after 6Gy",10.4 percentage of total
same,"Cell Cycle Distribution, sub G","HCT116 cells; HCT116, 5 μM, 18 h after 6Gy",4.0 percentage of total
same,"Cell Cycle Distribution, G1","HCT116 cells; HCT116, 10 μM, 18 h after 6Gy",25.7 percentage of total
same,"Cell Cycle Distribution, G2 + M","HCT116 cells; HCT116, 10 μM, 18 h after 6Gy",62.2 percentage of total
same,"Cell Cycle Distribution, S","HCT116 cells; HCT116, 10 μM, 18 h after 6Gy",9.4 percentage of total
same,"Cell Cycle Distribution, sub G","HCT116 cells; HCT116, 10 μM, 18 h after 6Gy",4.2 percentage of total
same,"Cell Cycle Distribution, G1","HCT116 cells; HCT116, 50 μM, 18 h after 6Gy",12.2 percentage of total
same,"Cell Cycle Distribution, G2 + M","HCT116 cells; HCT116, 50 μM, 18 h after 6Gy",63.3 percentage of total
same,"Cell Cycle Distribution, S","HCT116 cells; HCT116, 50 μM, 18 h after 6Gy",15.6 percentage of total
same,"Cell Cycle Distribution, sub G","HCT116 cells; HCT116, 50 μM, 18 h after 6Gy",12.0 percentage of total
same,Checkpoint remark,"HCT116 cells; HCT116, 50 μM, 18 h after 6Gy",G1 abrogation
same,Checkpoint abrogation,"HCT116 cells; HCT116, 6 Gy",abrogated radiation induced G1 arrest
same,"Cell Cycle Distribution, G1","HL60 cells; HL60, 1 μM, 18 h after 6Gy",5.2 percentage of total
same,"Cell Cycle Distribution, G2 + M","HL60 cells; HL60, 1 μM, 18 h after 6Gy",85.8 percentage of total
same,"Cell Cycle Distribution, S","HL60 cells; HL60, 1 μM, 18 h after 6Gy",3.0 percentage of total
same,"Cell Cycle Distribution, sub G","HL60 cells; HL60, 1 μM, 18 h after 6Gy",6.2 percentage of total
same,"Cell Cycle Distribution, G1","HL60 cells; HL60, 5 μM, 18 h after 6Gy",5.7 percentage of total
same,"Cell Cycle Distribution, G2 + M","HL60 cells; HL60, 5 μM, 18 h after 6Gy",86.8 percentage of total
same,"Cell Cycle Distribution, S","HL60 cells; HL60, 5 μM, 18 h after 6Gy",3.5 percentage of total
same,"Cell Cycle Distribution, sub G","HL60 cells; HL60, 5 μM, 18 h after 6Gy",4.4 percentage of total
same,"Cell Cycle Distribution, G1","HL60 cells; HL60, 10 μM, 18 h after 6Gy",5.6 percentage of total
same,"Cell Cycle Distribution, G2 + M","HL60 cells; HL60, 10 μM, 18 h after 6Gy",85.1 percentage of total
same,"Cell Cycle Distribution, S","HL60 cells; HL60, 10 μM, 18 h after 6Gy",4.3 percentage of total
same,"Cell Cycle Distribution, sub G","HL60 cells; HL60, 10 μM, 18 h after 6Gy",5.3 percentage of total
same,"Cell Cycle Distribution, G1","HL60 cells; HL60, 50 μM, 18 h after 6Gy",10.2 percentage of total
same,"Cell Cycle Distribution, G2 + M","HL60 cells; HL60, 50 μM, 18 h after 6Gy",64.9 percentage of total
same,"Cell Cycle Distribution, S","HL60 cells; HL60, 50 μM, 18 h after 6Gy",11.3 percentage of total
same,"Cell Cycle Distribution, sub G","HL60 cells; HL60, 50 μM, 18 h after 6Gy",14.3 percentage of total
same,Checkpoint remark,"HL60 cells; HL60, 50 μM, 18 h after 6Gy",Cell Death
same,Checkpoint abrogation,"HL60 cells; HL60, 6 Gy",abrogated radiation induced G1 arrest
same,"Cell Cycle Distribution, G1","HT29 cells; HT29, 1 μM, 18 h after 6Gy",35.2 percentage of total
same,"Cell Cycle Distribution, G2 + M","HT29 cells; HT29, 1 μM, 18 h after 6Gy",38.2 percentage of total
same,"Cell Cycle Distribution, S","HT29 cells; HT29, 1 μM, 18 h after 6Gy",10.6 percentage of total
same,"Cell Cycle Distribution, sub G","HT29 cells; HT29, 1 μM, 18 h after 6Gy",16.6 percentage of total
same,"Cell Cycle Distribution, G1","HT29 cells; HT29, 5 μM, 18 h after 6Gy",38.6 percentage of total
same,"Cell Cycle Distribution, G2 + M","HT29 cells; HT29, 5 μM, 18 h after 6Gy",46.3 percentage of total
same,"Cell Cycle Distribution, S","HT29 cells; HT29, 5 μM, 18 h after 6Gy",10.6 percentage of total
same,"Cell Cycle Distribution, sub G","HT29 cells; HT29, 5 μM, 18 h after 6Gy",5.3 percentage of total
same,"Cell Cycle Distribution, G1","HT29 cells; HT29, 10 μM, 18 h after 6Gy",21.1 percentage of total
same,"Cell Cycle Distribution, G2 + M","HT29 cells; HT29, 10 μM, 18 h after 6Gy",60.8 percentage of total
same,"Cell Cycle Distribution, S","HT29 cells; HT29, 10 μM, 18 h after 6Gy",12.3 percentage of total
same,"Cell Cycle Distribution, sub G","HT29 cells; HT29, 10 μM, 18 h after 6Gy",6.4 percentage of total
same,"Cell Cycle Distribution, G1","HT29 cells; HT29, 50 μM, 18 h after 6Gy",23.0 percentage of total
same,"Cell Cycle Distribution, G2 + M","HT29 cells; HT29, 50 μM, 18 h after 6Gy",43.1 percentage of total
same,"Cell Cycle Distribution, S","HT29 cells; HT29, 50 μM, 18 h after 6Gy",20.7 percentage of total
same,"Cell Cycle Distribution, sub G","HT29 cells; HT29, 50 μM, 18 h after 6Gy",14.7 percentage of total
same,Checkpoint remark,"HT29 cells; HT29, 50 μM, 18 h after 6Gy",G1 abrogation
same,Checkpoint abrogation,"HT29 cells; HT29, 6 Gy",abrogated radiation induced G1 arrest
